Test [1] concerns the target T1, human recombinant histamine H1 receptor (Homo sapiens, UniProt P35367).
T1 construct: expressed in transfected cells; host or cells: CHO-K1
The test can be described thus: Histamine H1 radioligand binding ([3H]Pyrilamine). The note with it: read-out: Histamine H1 Binding (1 μM), percent inhibition of specific binding; compound at 1 μM; 1.2 nM [3H]Pyrilamine. Put shortly:
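Results expressed as percent inhibition of specific [3H]pyrilamine binding, counted on filters after washing. Receptor source: CHO-K1 cells expressing recombinant human H1, in modified Tris-HCl buffer (50 mM, pH 7.4; 2 mM MgCl2, 100 mM NaCl, 250 mM sucrose). 1 μM pyrilamine defined non-specific binding.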

In test [2] the target is T2, human recombinant serotonin (5-Hydroxytryptamine) 5-HT2C receptor (Homo sapiens, UniProt P28335).
T2 construct: expressed in transfected cells; host or cells: CHO-K1
T2 sequence (P28335 33-458): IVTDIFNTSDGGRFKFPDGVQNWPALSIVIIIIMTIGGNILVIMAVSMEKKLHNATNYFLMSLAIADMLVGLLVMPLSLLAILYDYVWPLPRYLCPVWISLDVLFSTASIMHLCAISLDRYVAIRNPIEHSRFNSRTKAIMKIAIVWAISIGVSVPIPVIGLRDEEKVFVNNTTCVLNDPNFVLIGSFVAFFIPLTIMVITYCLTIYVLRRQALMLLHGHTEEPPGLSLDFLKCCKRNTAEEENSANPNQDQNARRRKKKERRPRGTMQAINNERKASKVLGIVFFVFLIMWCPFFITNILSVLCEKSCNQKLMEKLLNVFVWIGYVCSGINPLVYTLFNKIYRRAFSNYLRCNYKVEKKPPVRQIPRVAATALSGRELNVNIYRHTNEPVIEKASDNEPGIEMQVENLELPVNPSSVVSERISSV
Kind of test: Serotonin 5-HT2C radioligand binding ([3H]Mesulergine). The settings on record: compound at 0.1 μM; read-out: Inhibition of ligand binding, Serotonin 5-HT2C (percent inhibition of specific binding). On the procedure:
Compounds of the invention were incubated with 1 nM [^3H]Mesulergine for 60 min at 25° C. Non-specific binding was estimated in the presence of 1 μM Mianserin. Receptor proteins were filtered and washed, the filters were then counted to determine [^3H]Mesulergine specifically bound.

Drawing on patent US9187471B2, “Pyrido [4,3-b] indole and pyrido [3,4-b] indole derivatives and methods of use” (Medivation Technologies, Inc., priority 2010, dated 2015), this text covers inhibition for 27 compounds.

A word on the inhibition: it is the drop in the measured response relative to a control, in per cent.

T1 sequence (P35367 whole entry): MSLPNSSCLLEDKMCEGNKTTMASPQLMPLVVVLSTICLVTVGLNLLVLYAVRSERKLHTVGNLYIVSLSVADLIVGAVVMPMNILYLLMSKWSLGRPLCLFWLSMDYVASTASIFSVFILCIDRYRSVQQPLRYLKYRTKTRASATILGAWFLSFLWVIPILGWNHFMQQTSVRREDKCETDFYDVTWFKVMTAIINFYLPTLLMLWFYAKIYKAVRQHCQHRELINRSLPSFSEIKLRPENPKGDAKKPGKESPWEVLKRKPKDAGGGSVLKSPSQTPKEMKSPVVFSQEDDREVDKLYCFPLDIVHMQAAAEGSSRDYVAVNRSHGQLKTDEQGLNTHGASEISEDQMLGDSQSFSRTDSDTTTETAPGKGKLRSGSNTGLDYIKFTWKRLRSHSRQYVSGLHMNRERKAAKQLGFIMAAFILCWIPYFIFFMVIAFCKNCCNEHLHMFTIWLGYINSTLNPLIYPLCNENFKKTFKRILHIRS

`Cc1ccc2c(c1)c1c(n2-c2cccc(-c3cccn3C)c2)CCN(C)C1` [Compound No. 69, 2,8-dimethyl-5-(3-(1-methyl-1H-pyrrol-2-yl)phenyl)-2,3,4,5-tetrahydro-1H-pyrido[4,3-b]indole]: the inhibition at 1 µM in test [1] was 42%. In test [2], the inhibition at 0.1 µM was found to be 79%.
As for `Cc1ccc2c(c1)c1c(n2-c2cccc(-c3cn[nH]c3)c2)CCN(C)C1` [Compound No. 70, 5-(3-(1H-pyrazol-4-yl)phenyl)-2,8-dimethyl-2,3,4,5-tetrahydro-1H-pyrido[4,3-b]indole], in test [1], the inhibition at 1 µM is 8%. The inhibition at 0.1 µM in test [2] was 81%.
Take `CNC(=O)c1ccc(-c2ccccc2-n2c3c(c4cc(C)ccc42)CN(C)CC3)cn1` [Compound No. 71, 5-(2-(2,8-dimethyl-3,4-dihydro-1H-pyrido[4,3-b]indol-5(2H)-yl)phenyl)-N-methylpicolinamide]: the inhibition at 1 µM in test [1] came out at 18%. Besides, the inhibition at 0.1 µM in test [2] is 15%.
The matching figures for `CNC(=O)c1ccc(-c2ccccc2-n2c3c(c4cc(C)ccc42)CN(C)CC3)cc1` [Compound No. 72, 2′-(2,8-dimethyl-3,4-dihydro-1H-pyrido[4,3-b]indol-5(2H)-yl)-N-methylbiphenyl-4-carboxamide]: 18% and 16%.
For the compound `CNC(=O)c1ccc(-c2cscc2-n2c3c(c4cc(C)ccc42)CN(C)CC3)cn1` [Compound No. 73], in test [1], the inhibition at 1 µM is 20%. Besides, the inhibition at 0.1 µM in test [2] is 43%.
As for `Cc1ccc2c(c1)c1c(n2-c2ccc3ccncc3c2)CCN(C)C1` [Compound No. 74, 5-(isoquinolin-7-yl)-2,8-dimethyl-2,3,4,5-tetrahydro-1H-pyrido[4,3-b]indole], in test [1], the inhibition at 1 µM was found to be 18%. In test [2], the inhibition at 0.1 µM was 51%.
The matching figures for `CNC(=O)c1ccc(-c2cccc(-n3c4c(c5cc(C)ccc53)CN(C)CC4)c2)cn1` [Compound No. 75, 5-(3-(2,8-dimethyl-3,4-dihydro-1H-pyrido[4,3-b]indol-5(2H)-yl)phenyl)-N-methylpicolinamide]: 19% and 25%.
For `Cc1ccc2c(c1)c1c(n2-c2ccc3c(c2)CCN(C=O)C3)CCN(C)C1` [Compound No. 77, 6-(2,8-dimethyl-1,2,3,4-tetrahydro-pyrido[4,3-b]indol-5-yl)-3,4-dihydro-1H-isoquinoline-2-carbaldehyde] the same measures were 35% and 51%.
For `CNC(=O)c1cc(-n2c3c(c4cc(C)ccc42)CN(C)CC3)cs1` [Compound No. 78] the same measures were 13% and 35%.
As to `Cc1ccc2c(c1)c1c(n2-c2ccccc2-c2ccc(C)s2)CCN(C)C1` [Compound No. 81, 2,8-dimethyl-5-(2-(5-methylthiophen-2-yl)phenyl)-2,3,4,5-tetrahydro-1H-pyrido[4,3-b]indole], the inhibition at 1 µM in test [1] was found to be 57%. Further, the inhibition at 0.1 µM in test [2] amounted to 89%.
The matching figures for `Cc1ccc2c(c1)c1c(n2-c2ccccc2-c2c(C)noc2C)CCN(C)C1` [Compound No. 82, 4-(2-(2,8-dimethyl-3,4-dihydro-1H-pyrido[4,3-b]indol-5(2H)-yl)phenyl)-3,5-dimethylisoxazole]: 18% and 68%.
The matching figures for `CC(=O)Nc1ccc(-c2ccccc2-n2c3c(c4cc(C)ccc42)CN(C)CC3)cn1` [Compound No. 83, N-(5-(2-(2,8-dimethyl-3,4-dihydro-1H-pyrido[4,3-b]indol-5(2H)-yl)phenyl)pyridin-2-yl)acetamide]: 22% and 15%.
For the compound `Cc1ccc2c(c1)c1c(n2-c2ccccc2-c2ccc(F)nc2)CCN(C)C1` [Compound No. 84, 5-(2-(6-fluoropyridin-3-yl)phenyl)-2,8-dimethyl-2,3,4,5-tetrahydro-1H-pyrido[4,3-b]indole], the inhibition at 1 µM in test [1] amounted to 26%. Moreover, the inhibition at 0.1 µM in test [2] was determined as 75%.
On to `Cc1ccc2c(c1)c1c(n2-c2cccc(-c3ccc(S(C)(=O)=O)cc3)c2)CCN(C)C1` [Compound No. 131, 2,8-dimethyl-5-(4′-(methylsulfonyl)biphenyl-3-yl)-2,3,4,5-tetrahydro-1H-pyrido[4,3-b]indole], for which the inhibition at 1 µM in test [1] was determined as 20%. In test [2], the inhibition at 0.1 µM was -6%.
Regarding `Cc1ccc2c(c1)c1c(n2-c2ccc(-c3ccncc3)cn2)CCN(C)C1` [Compound No. 132, 5-(3,4′-bipyridin-6-yl)-2,8-dimethyl-2,3,4,5-tetrahydro-1H-pyrido[4,3-b]indole], the inhibition at 1 µM in test [1] turned out to be 3%. Also, the inhibition at 0.1 µM in test [2] was 77%.
Turning to `Cc1ccc2c(c1)c1c(n2-c2ccc(-c3cccnc3)cn2)CCN(C)C1` [Compound No. 133, 5-(3,3′-bipyridin-6-yl)-2,8-dimethyl-2,3,4,5-tetrahydro-1H-pyrido[4,3-b]indole], in test [1], the inhibition at 1 µM came out at 6%. Also, the inhibition at 0.1 µM in test [2] turned out to be 92%.
For `Cc1ccc2c(c1)c1c(n2-c2ccc(-c3cnn(C)c3)cn2)CCN(C)C1` [Compound No. 134, 2,8-dimethyl-5-(5-(1-methyl-1H-pyrazol-4-yl)pyridin-2-yl)-2,3,4,5-tetrahydro-1H-pyrido[4,3-b]indole], the inhibition at 1 µM in test [1] turned out to be 6%. In addition, in test [2], the inhibition at 0.1 µM worked out at 96%.
As for `Cc1ccc2c(c1)c1c(n2-c2ccc(-c3cncc4ccccc34)cn2)CCN(C)C1` [Compound No. 135, 5-(5-(isoquinolin-4-yl)pyridin-2-yl)-2,8-dimethyl-2,3,4,5-tetrahydro-1H-pyrido[4,3-b]indole], the inhibition at 1 µM in test [1] came to 10%. The inhibition at 0.1 µM in test [2] was found to be 88%.
For `Cc1ccc2c(c1)c1c(n2-c2ccc(-c3ccc4c(ccn4C)c3)cn2)CCN(C)C1` [Compound No. 136, 2,8-dimethyl-5-(5-(1-methyl-1H-indol-5-yl)pyridin-2-yl)-2,3,4,5-tetrahydro-1H-pyrido[4,3-b]indole] the same measures were 5% and 101%.
For the compound `Cc1ccc2c(c1)c1c(n2-c2ccc(-c3c(C)noc3C)cn2)CCN(C)C1` [Compound No. 137, 4-(6-(2,8-dimethyl-3,4-dihydro-1H-pyrido[4,3-b]indol-5(2H)-yl)pyridin-3-yl)-3,5-dimethylisoxazole], the inhibition at 1 µM in test [1] stood at 3%. Further, the inhibition at 0.1 µM in test [2] came to 75%.
For `Cc1ccc2c(c1)c1c(n2-c2ccc(-c3cnc(N(C)C)nc3)cn2)CCN(C)C1` [Compound No. 138, 5-(6-(2,8-dimethyl-3,4-dihydro-1H-pyrido[4,3-b]indol-5(2H)-yl)pyridin-3-yl)-N,N-dimethylpyrimidin-2-amine] the same measures were 7% and 86%.
Regarding `CC(=O)Nc1ccc(-c2ccc(-n3c4c(c5cc(C)ccc53)CN(C)CC4)nc2)cn1` [Compound No. 139, N-(6′-(2,8-dimethyl-3,4-dihydro-1H-pyrido[4,3-b]indol-5(2H)-yl)-3,3′-bipyridin-6-yl)acetamide], the inhibition at 1 µM in test [1] is 4%. Also, the inhibition at 0.1 µM in test [2] came to 65%.
The matching figures for `Cc1ccc2c(c1)c1c(n2-c2ccc(-c3ccc(F)cc3)cn2)CCN(C)C1` [Compound No. 140, 5-(5-(4-fluorophenyl)pyridin-2-yl)-2,8-dimethyl-2,3,4,5-tetrahydro-1H-pyrido[4,3-b]indole]: 10% and 100%.
As to `Cc1ccc2c(c1)c1c(n2-c2ccc(-c3cccc4ccccc34)cn2)CCN(C)C1` [Compound No. 141, 2,8-dimethyl-5-(5-(naphthalen-1-yl)pyridin-2-yl)-2,3,4,5-tetrahydro-1H-pyrido[4,3-b]indole], in test [1], the inhibition at 1 µM came out at 11%. Besides, in test [2], the inhibition at 0.1 µM worked out at 92%.
`Cc1ccc2c(c1)c1c(n2-c2ccc(-c3ccc(F)nc3)cn2)CCN(C)C1` [Compound No. 142, 5-(6′-fluoro-3,3′-bipyridin-6-yl)-2,8-dimethyl-2,3,4,5-tetrahydro-1H-pyrido[4,3-b]indole]: the inhibition at 1 µM in test [1] stood at 7%. For the same compound, in test [2], the inhibition at 0.1 µM was found to be 98%.
For `Cc1csc(-c2ccc(-n3c4c(c5cc(C)ccc53)CN(C)CC4)nc2)c1` [Compound No. 144, 2,8-dimethyl-5-(5-(4-methylthiophen-2-yl)pyridin-2-yl)-2,3,4,5-tetrahydro-1H-pyrido[4,3-b]indole] the same measures were 11% and 100%.
For `Cc1ccc2c(c1)c1c(n2-c2ccc(-c3ccc(S(N)(=O)=O)cc3)cn2)CCN(C)C1` [Compound No. 145, 4-(6-(2,8-dimethyl-3,4-dihydro-1H-pyrido[4,3-b]indol-5(2H)-yl)pyridin-3-yl)benzenesulfonamide] the same measures were 17% and 66%.
